Results: patent US20120179089A1, “SUBSTITUTED BIPYRIDINES FOR USE IN ORGANIC LIGHT-EMITTING DEVICES” (Nitto Denko Corporation, priority 2010, published 2012)

Columns and labels:
[1] = system: CHO-K1 (Chinese Hamster Ovarian Cancer, ATCC, CRL-2243) cell line; assay: Efficacy study: ALA plus red OLED light, MTT cell viability; format: cell-based; conditions: ALA about 1 mM or higher, 16 hrs incubation, OLED light (630 nm) dose of 30 J/cm^2, FIG. 10
CHO-K1 cells = assay: Optical microscope images of cells after red light irradiation; format: cell-based, Chinese Hamster; conditions: ALA treated CHO-K1 cells after 30 J/cm^2 red light (630 nm) irradiation; FIG. 9B
[2] = system: CHO-K1 (Chinese Hamster Ovarian Cancer, ATCC, CRL-2243) cell line; assay: Conversion of ALA to protoporphyrin IX (PpIX) in cells, fluorescence emission; format: cell-based; conditions: ALA 1 mM and 2 mM, about 16 hrs at 37° C.; fluorescence emission at 635 nm
[3] = Solubility observed on isolation; format: physicochemical
Experimental: 6,6′-di(benzo[d]thiazol-2-yl)-3,3′-bipyridine (17). A mixture of 9 (0.591 g, 2.03 mmol), 16 (0.700 g, 2.07 mmol), tetrakis(triphenylphosphine)palladium(0) (117 mg, 102 μmol), Na2CO3 (1.59 g, 15.0 mmol), H2O (15 mL) and THF (25 mL) was degassed with argon for about 20 min while stirring. The stirring reaction mixture was then maintained under argon at about 80° C. for about 19 h. Upon completion, the mixture was cooled to RT, filtered and the precipitate collected as a white solid (0.83 g, 97%).
2-(6′-(benzo[d]thiazol-2-yl)-3,3′-bipyridin-6-yl)benzo[d]oxazole (18). Following the procedure for 17, 11 (0.558 g, 2.03 mmol), 16 (0.700 g, 2.07 mmol),), tetrakis(triphenylphosphine)palladium(0) (117 mg, 102 μmol), Na2CO3 (1.59 g, 15.0 mmol), H2O (15 mL) and THF (25 mL) yielded an insoluble white solid (0.70 g, 84%) after filtration.

pathological myopia = assay: Phototherapy of pathological myopia with red light emitting OLED; format: in vivo, person; conditions: about 6 mg/m^2 intravenously; retina illuminated about 15 minutes after start of infusion
[4] = system: age-related macular degeneration; assay: Phototherapy of age-related macular degeneration with red light emitting OLED; format: in vivo, person; conditions: about 6 mg/m^2 intravenously; retina illuminated about 15 minutes after start of infusion
[5] = system: presumed ocular histoplasmosis; parameters: species or system person; conditions: in vivo, iv

## NCC(=O)CCC(=O)O [ALA, 5-aminolevulinic acid]
[1]
  cell death: ≥ 90%
CHO-K1 cells
  cell morphology / cell death by optical microscope: significant cell death
[2]
  generation of PpIX: confirmed

## c1ccc2sc(-c3ccc(-c4ccc(-c5nc6ccccc6s5)nc4)cn3)nc2c1 [Compound 17, 6,6′-di(benzo[d]thiazol-2-yl)-3,3′-bipyridine]
[3]
  solubility: insoluble in numerous common organic solvents

## c1ccc2oc(-c3ccc(-c4ccc(-c5nc6ccccc6s5)nc4)cn3)nc2c1 [Compound 18, 2-(6′-(benzo[d]thiazol-2-yl)-3,3′-bipyridin-6-yl)benzo[d]oxazole]
[3]
  solubility: insoluble

## C=Cc1c(C)c2cc3nc(cc4[nH]c(cc5nc(cc1[nH]2)C(C)=C5CCC(=O)O)c(CCC(=O)OC)c4C)[C@@]1(C)C3=CC=C(C(=O)OC)[C@H]1C(=O)OC [Verteporphin]
Pathological myopia
  patient's vision: anticipated to be stabilized
[4]
  patient's vision: anticipated to be stabilized
[5]
  patient's vision: anticipated to be stabilized
